Here are results for 3 compounds from patent publication EP0210291A1, “Platinum complexes of antitumor agents” (AMERICAN CYANAMID COMPANY, priority 1985, dated 1987).

The assay concerns lymphocytic leukemia P388. As to the kind of experiment: Lymphocytic leukemia P388 test. The following applies: for Median Survival: mice with P388 leukemia; for T/Cx100: survival time treated/control. It is filed as in vivo, BDF/1 mice. Here is the method:
Lymphocytic leukemia P388 test
The animals used were BDF/1 mice all of one sex, weighing a minimum of 18 g and all within a 3 g weight range. There were 5 or 6 animals per test group. The tumor transplant was by intraperitoneal injection of 0.5 ml of dilute ascitic fluid containing 10⁶ cells of lymphocytic leukemia P388. The test compounds were administered intraperitoneally on days 1,5 and 9 relative to tumor inoculation, at various doses. The animals were weighed and survivors recorded on a regular basis for 30 days. The median survival time and the ratio of survival time for treated (T)/control (C) animals were calculated. The positive control compound was either 1,4-dihydroxy-5,8-bis[[2-(2-hydroxyethylamino)ethyl]-amino]anthraquinone dihydrochloride or Cisplatin.

The mark [1] stands for this setting: Mus musculus, P388, ip, read-out: T/Cx100.
Setting [2] is: dose 0.2 mg/kg intraperitoneally on days 1, 5 and 9.
[3] abbreviates: dose 0.6 mg/kg intraperitoneally on days 1, 5 and 9, 0.6 mg/kg.
The mark [4] stands for this setting: dose 0.8 mg/kg intraperitoneally on days 1, 5 and 9, 0.8 mg/kg.
[5] abbreviates: dose 1.2 mg/kg intraperitoneally on days 1, 5 and 9.
The mark [6] stands for this setting: dose 1.25 mg/kg intraperitoneally on days 1, 5 and 9.
Setting [7] is: dose 1.5 mg/kg intraperitoneally on days 1, 5 and 9.
[8] abbreviates: dose 2.5 mg/kg intraperitoneally on days 1, 5 and 9.
Where [9] appears, read: dose 50 mg/kg intraperitoneally on days 1, 5 and 9.
The mark [10] stands for this setting: dose 200 mg/kg intraperitoneally on days 1, 5 and 9.

Several values for one entry are separate records, joined by “and”; a condition that tells them apart may be missing. Identical values can stand only once. Counter-ions that a name gives are not always drawn.

`O=C1c2c(O)ccc(O)c2C(=O)c2c(NCCNCCO)ccc(NCCNCCO)c21` [1,4-dihydroxy-5,8-bis[[2-(2-hydroxyethylamino)ethyl]-amino]anthraquinone dihydrochloride]: under setting [1], the response vs control in vivo at 0.025 mg/kg came out at 110%, the response vs control in vivo at 0.1 mg/kg was 136%, the response vs control in vivo at 0.4 mg/kg worked out at 153% and the response vs control in vivo at 1.6 mg/kg worked out at 212%.
Regarding `N.N.[Cl][Pt][Cl]` [Cisplatin], the “Median Survival” value by setting is: under setting [2], 21 days; under setting [3], 21 days and 22.5 days; under setting [4], 26.5 days and 23.5 days; under setting [5], 22 days; under setting [6], 13.5 days; under setting [7], 22.5 days. Besides, the “Median Survival” value under setting [8] was 16 days. Moreover, the T/Cx100 under setting [2] stood at 210%; the T/Cx100 under setting [3] is 196% and 221%; the T/Cx100 under setting [4] was 217% and 235%; the T/Cx100 under setting [5] worked out at 206%; the T/Cx100 under setting [6] is given as 132%; the T/Cx100 under setting [7] amounted to 184%. Besides, the T/Cx100 under setting [8] came to 150%.
“hydrazinecarboximidamide, compound with platinum chloride (1:1)”: under setting [9], the “Median Survival” value turned out to be 20.5 days and the T/Cx100 stood at 174%. Under setting [10], the “Median Survival” value turned out to be 23 days and the T/Cx100 came to 195%.
